Reference: ChEMBL document CHEMBL4665882, “Allosteric kidney-type glutaminase (GLS) inhibitors with a mercaptoethyl linker” (Bioorg Med Chem, 2020)
pIC50: −log10 of the molar value.

Tests used:
[1] = Aqueous solubility of compound in PBS 7.4 at 5 mg/ml incubated for 24 hrs by LC-MS-based shake-flask method; type: physicochemical; conditions: buffer, pH 7.4, 24 h
[2] = biological target: T1, Glutaminase kidney isoform, mitochondrial (Homo sapiens, UniProt O94925); test: Allosteric inhibition of human kidney glutaminase using [3H]-Glutamine as substrate in presence of inhibitor incubated for 45 mins by Perkin Elmer based assay
T1 sequence (O94925 whole entry): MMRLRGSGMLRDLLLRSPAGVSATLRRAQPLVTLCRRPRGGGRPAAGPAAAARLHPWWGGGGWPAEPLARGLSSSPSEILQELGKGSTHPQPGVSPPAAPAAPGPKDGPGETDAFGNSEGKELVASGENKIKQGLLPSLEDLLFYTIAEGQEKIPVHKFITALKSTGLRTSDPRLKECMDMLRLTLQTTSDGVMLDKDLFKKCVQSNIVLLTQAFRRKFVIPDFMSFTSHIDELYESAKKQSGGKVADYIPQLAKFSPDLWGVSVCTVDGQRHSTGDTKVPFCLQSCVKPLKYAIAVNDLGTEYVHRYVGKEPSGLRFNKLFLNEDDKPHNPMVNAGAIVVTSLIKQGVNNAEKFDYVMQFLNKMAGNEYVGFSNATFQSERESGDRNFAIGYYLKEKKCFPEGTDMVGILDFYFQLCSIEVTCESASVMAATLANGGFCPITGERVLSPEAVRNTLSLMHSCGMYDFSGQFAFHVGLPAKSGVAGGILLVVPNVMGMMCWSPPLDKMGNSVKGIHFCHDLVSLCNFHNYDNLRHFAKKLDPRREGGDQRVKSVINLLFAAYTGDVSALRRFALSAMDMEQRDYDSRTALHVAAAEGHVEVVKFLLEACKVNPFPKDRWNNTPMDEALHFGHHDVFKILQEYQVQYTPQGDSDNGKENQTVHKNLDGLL

[3] = Inhibition of human recombinant glutaminase assessed as reduction in glutamate production in presence of NADPH-dependent glutamate dehydrogenase preincubated 60 mins by coupled biochemical assay
[4] = Metabolic stability in mouse liver microsomes assessed as compound remaining after 60 mins incubation in presence of NADPH by LC-MS/MS analysis; type: ADME, Microsome; conditions: 1 h
[5] = Inhibition of glutaminase (unknown origin) preincubated for 60 mins; parameters: species or system Homo sapiens

| Structure (SMILES) | pIC50 [2] | also measured |
| --- | --- | --- |
| O=C(Cc1ccccc1)Nc1ccc(CCSc2nnc(NC(=O)Cc3ccccc3)s2)nn1 | 7.52 | solubility [1]: Insoluble |
| O=C(Cc1cccc(OC(F)(F)F)c1)Nc1ccc(CCCCc2nnc(NC(=O)Cc3ccccn3)s2)nn1 | – | pIC50 [3]: > 7.30 |
| O=C(Cc1ccccn1)Nc1nnc(CCSc2nnc(NC(=O)Cc3ccccc3)s2)s1 | 6.96 | – |
| O=C(Cc1ccccc1)Nc1nnc(CCSc2nnc(NC(=O)Cc3ccccc3)s2)s1 | 7.30 | Stabilty [4]: 87% |
| Nc1nnc(SCCc2nnc(NC(=O)Cc3ccccc3)s2)s1 | 5.52 | – |
| Nc1nnc(CCSc2ccc(NC(=O)Cc3ccccc3)nn2)s1 | 4.85 | – |
| Nc1nnc(SCCc2ccc(NC(=O)Cc3ccccc3)nn2)s1 | 5.17 | – |
| O=C(Cc1ccccc1)Nc1nnc([C@H]2CCC[C@H](c3nnc(NC(=O)Cc4ccccc4)s3)C2)s1 | – | pIC50 [5]: > 7.00 |
| Nc1nnc(CCSc2nnc(NC(=O)Cc3ccccc3)s2)s1 | 5.80 | – |
| O=C(Cc1ccccc1)Nc1nnc(CCSc2nnc(NC(=O)Cc3ccccn3)s2)s1 | 7.00 | – |
| O=C(Cc1ccccc1)Nc1nnc([C@H]2CCC[C@H](c3nnc(NC(=O)Cc4ccccc4)s3)C2)s1 (racemic) | 6.55 | – |
| CN(C)c1ccc(CC(=O)Nc2nnc(CCSc3nnc(NC(=O)Cc4ccccc4)s3)s2)cc1 | 6.70 | – |
| O=C(Cc1cccc(OC(F)(F)F)c1)Nc1nnc(CCSc2nnc(NC(=O)Cc3ccccc3)s2)s1 | 6.85 | – |
| O=C(Cc1ccccc1)Nc1nnc(CSCc2nnc(NC(=O)Cc3ccccc3)s2)s1 | < 4.00 | pIC50 [5]: < 4.70 |
